We go through two compounds from PMC7504721, “Targeting the Initiator Protease of the Classical Pathway of Complement Using Fragment-Based Drug Discovery” (Molecules, 2020).

In one test the target is T1, C1r proenzyme (Homo sapiens, UniProt P00736).
T1 construct: purchased Complement Technology (CompTech)
T1 sequence (P00736 18-705): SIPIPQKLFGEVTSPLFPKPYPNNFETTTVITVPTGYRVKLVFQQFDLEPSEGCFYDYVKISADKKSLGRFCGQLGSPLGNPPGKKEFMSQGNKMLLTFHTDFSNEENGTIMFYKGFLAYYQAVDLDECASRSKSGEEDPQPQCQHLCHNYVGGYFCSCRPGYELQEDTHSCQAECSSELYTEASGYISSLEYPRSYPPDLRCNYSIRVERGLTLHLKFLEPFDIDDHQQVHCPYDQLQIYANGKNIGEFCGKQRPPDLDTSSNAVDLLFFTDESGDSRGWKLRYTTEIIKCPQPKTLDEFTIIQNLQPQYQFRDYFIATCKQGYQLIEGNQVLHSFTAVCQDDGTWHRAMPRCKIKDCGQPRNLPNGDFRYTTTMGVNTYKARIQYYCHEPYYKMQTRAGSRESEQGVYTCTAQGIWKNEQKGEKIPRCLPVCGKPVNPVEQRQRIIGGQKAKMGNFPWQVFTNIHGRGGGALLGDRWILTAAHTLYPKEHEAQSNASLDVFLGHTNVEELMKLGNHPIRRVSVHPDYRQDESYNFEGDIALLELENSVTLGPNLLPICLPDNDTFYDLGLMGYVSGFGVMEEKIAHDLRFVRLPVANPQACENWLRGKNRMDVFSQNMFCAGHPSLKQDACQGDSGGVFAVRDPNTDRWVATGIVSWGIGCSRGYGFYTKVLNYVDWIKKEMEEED
The test can be described thus: C1r proenzyme activation (autoactivation) assay with Z-Gly-Arg-sBzl substrate. The class given is biochemical. As to conditions: 10 mM compound, 37 °C, 1 h. The procedure:
Figure 6 CMP-1696 structure activity relationship. (A) CMP-1696 was redocked onto C1r-CCP2-SP (PDB: 1MD8, grey surface representation) and the top nine scored poses are shown. All CMP-1696 poses dock into the S1 subsite (cyan) near the catalytic triad (blue). (B) C1r autoactivation assay. C1r proenzyme undergoes time-dependent autoactivation at 37 °C. Autoactivation was measured using a synthetic substrate for C1r enzyme. The reaction progress of vehicle control (dashed line) or in the presence of 10 mM CMP-1696 (solid line) was monitored for 1 h. (C) Molecular dynamics (MD) simulations of CMP-1696/C1r-CCP2-SP. Root mean square deviation (RMSD) in nm for each of the CMP-1696 poses measured over the 10 ns molecular dynamics simulation. (D) MM/PBSA energy calculations for each pose in the 10 ns MD simulations indicate that pose 1 is the most energetically favorable. […]
Individual stock solutions of 1 mM of Z-Gly-Arg-sBzl (MP Biomedicals, Irvine, CA, USA) and 5,5′-Dithiobis-(2-nitrobenzoic acid) (DTNB) (Sigma-Aldrich, St. Louis, MO, USA) were made by dissolving powder in DMSO to give 10 mM stocks of each compound, which were then diluted to 1 mM in assay buffer (20 mM HEPES pH 7.3, 140 mM NaCl, 0.005% (v/v) Tween-20, 2 mM CaCl2). […] Plates were read at 450 nm using an EnSight multimode plate reader (Perkin-Elmer, Waltham, MA, USA) and the reaction progress was tracked for 1 h.

For another test, the system named is C1r. On the set-up: method as in PMID 10206542. The note with it: cited from earlier work.

As for `COCc1nc(-c2ccc(OC3CNC3)cc2)no1` [CMP-1696], at C1r proenzyme, the “inhibition of autocatalysis of C1r proenzyme” value was “directly inhibited”. On to `N=C(N)c1ccc2cc(OC(=O)c3ccc(N=C(N)N)cc3)ccc2c1` [Futhan, reference compound], for which the “inhibition of C1r” value in the test with C1r was “previously reported to inhibit C1r”.
